Source: patent US7038085B2, “Stereoisomers of p-hydroxy-milnacipran, and methods of use thereof” (Collegium Pharmaceutical, Inc., priority 2002, dated 2006)

Columns and labels:
[1] = biological target: T1, Norepinephrine Transporter (NET) (Homo sapiens, UniProt P23975); assay: Transporter, Norepinephrine (NET) radioligand binding (cat. 204410); conditions: for Ki: human recombinant MDCK cells, [125I] RTI-55, Ki by Cheng and Prusoff, read-out: Ki, displacement of radioligand from Norepinephrine Transporter binding sites
T1 sequence (P23975 whole entry): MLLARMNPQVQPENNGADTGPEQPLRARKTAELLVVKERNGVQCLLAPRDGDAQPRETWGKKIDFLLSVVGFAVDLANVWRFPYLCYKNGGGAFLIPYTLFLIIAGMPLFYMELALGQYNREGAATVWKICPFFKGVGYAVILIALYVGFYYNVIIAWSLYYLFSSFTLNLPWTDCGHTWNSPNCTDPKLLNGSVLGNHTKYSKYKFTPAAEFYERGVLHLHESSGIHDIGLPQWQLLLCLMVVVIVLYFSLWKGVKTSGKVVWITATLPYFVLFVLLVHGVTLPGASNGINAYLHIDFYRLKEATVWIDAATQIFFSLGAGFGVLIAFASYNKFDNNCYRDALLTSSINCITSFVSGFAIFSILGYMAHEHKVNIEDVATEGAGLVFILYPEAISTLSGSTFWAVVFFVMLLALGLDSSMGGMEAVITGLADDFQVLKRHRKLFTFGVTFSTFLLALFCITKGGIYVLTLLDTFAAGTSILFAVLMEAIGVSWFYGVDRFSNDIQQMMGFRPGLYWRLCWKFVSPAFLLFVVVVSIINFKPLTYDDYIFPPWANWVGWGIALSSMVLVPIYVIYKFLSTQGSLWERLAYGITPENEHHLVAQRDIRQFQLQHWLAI
Method: (§1) The methods employed in this study have been adapted from the scientific literature to maximize reliability and reproducibility. Reference standards were run as an integral part of each assay to ensure the validity of the results obtained. Assays were performed under conditions as described below. Literature reference(s) for each assay are tabulated below and hereby incorporated by reference.
(§2) Where presented, IC50 values were determined by a non-linear, least squares regression analysis using Data Analysis ToolboX™ (MDL Information Systems, San Leandro, Calif., USA). Where inhibition constants (Ki) are presented, the Ki values were calculated using the equation of Cheng and Prusoff(Cheng, Y., Prusoff, W. H., Biochem. Pharmacol. 22:30993108, 1973) using the observed IC50 of the tested compound, the concentration of radioligand employed in the assay, and the historical values for the Kd of the ligand (obtained experimentally at MDS Pharma Services). Where presented, the Hill coefficient (nH), defining the slope of the competitive binding curve, was calculated using Data Analysis Toolbox™. […] Where IC50, Ki, and/or nH data are presented without Standard Error of the Mean (SEM), data are insufficient to be quantitative, and the values presented (Ki, IC50, nH) should be interpreted with caution.
(§3) Where presented, IC50 values were determined by a non-linear, least squares regression analysis using Data Analysis Toolbox™ (MDL Information Systems, San Leandro, Calif., USA). Where inhibition constants (Ki) are presented, the Ki values were calculated using the equation of Cheng and Prusoff (Cheng, Y., Prusoff, W. H., Biochem. Pharmacol. 22:3099–3108, 1973) using the observed IC50 of the tested compound, the concentration of radioligand employed in the assay, and the historical values for the KD of the ligand (obtained experimentally at MDS Pharma Sarvices.

[2] = biological target: T2, Serotonin Transporter (SERT) (Homo sapiens, UniProt P31645); assay: Transporter, Serotonin (5-Hydroxytryptamine) (SERT) radioligand binding (cat. 274020); conditions: for Ki: human recombinant HEK-293 cells, [125I] RTI-55, Ki by Cheng and Prusoff, read-out: Ki, displacement of radioligand from Serotonin Transporter binding sites
T2 sequence (P31645 whole entry): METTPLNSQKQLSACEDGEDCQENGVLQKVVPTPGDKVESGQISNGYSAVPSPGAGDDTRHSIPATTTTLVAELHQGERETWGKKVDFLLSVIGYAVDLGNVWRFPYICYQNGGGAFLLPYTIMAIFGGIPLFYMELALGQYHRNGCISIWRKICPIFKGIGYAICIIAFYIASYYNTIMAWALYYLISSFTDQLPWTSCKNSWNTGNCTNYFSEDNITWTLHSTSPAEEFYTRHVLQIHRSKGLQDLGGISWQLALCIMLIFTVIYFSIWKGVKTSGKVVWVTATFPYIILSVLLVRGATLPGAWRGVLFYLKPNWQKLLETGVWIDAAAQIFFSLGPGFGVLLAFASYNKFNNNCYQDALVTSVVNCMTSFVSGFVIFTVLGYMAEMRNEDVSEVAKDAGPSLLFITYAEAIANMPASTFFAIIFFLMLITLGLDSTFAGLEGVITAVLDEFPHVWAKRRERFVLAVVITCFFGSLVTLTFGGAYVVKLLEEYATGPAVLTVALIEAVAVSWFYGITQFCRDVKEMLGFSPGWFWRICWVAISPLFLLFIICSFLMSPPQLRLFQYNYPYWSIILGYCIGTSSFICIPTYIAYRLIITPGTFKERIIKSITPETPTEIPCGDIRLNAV
Method: as §1, §2, §3

Norepinephrine Uptake = Norepinephrine Uptake (Homo sapiens, UniProt P23975); assay: Inhibition of cellular Norepinephrine Uptake (cat. 302000); type: cell-based; conditions: for IC50: cellular uptake, FIG. 61
Norepinephrine Uptake, sequence (P23975 whole entry): as the sequence (P23975 whole entry) above
Method: (§4) The methods employed have been adapted from the scientific literature to maximize reliability and reproducibility. Reference standards were run as an integral part of each assay to ensure the validity of the results obtained. Assays were performed under the conditions described below. The literature reference(s) for each assay are are listed below.
as §3

Serotonin Uptake = Serotonin Uptake (Homo sapiens, UniProt P31645); assay: Inhibition of cellular Serotonin Uptake (cat. 364000); type: cell-based; conditions: for IC50: cellular uptake, FIG. 61
Serotonin Uptake, sequence (P31645 whole entry): as the sequence (P31645 whole entry) above
Method: as §4, §3

[3] = Cytotoxicity, fluorometric assay run with the uptake assays (cat. 302100, 364100); type: cell-based; conditions: at 10 μM
From the text: • 118090. Crespi, C. L., Miller, V. P and Penman, B. W. (1997) Microtiter plate assays for inhibition of human, drug-metabolizing cytochromes P450. Anal Biochem 248(1): 188–190. • Gentest Technical Bulletin (Version 4.2: Revised 27 Sep. 2000) A high throughput method for measuring cytochrome P450 inhibition. Gentest Technical Bulletin (Version 4.2) Revised 27 Sep. 2000). • 204410. Galli, A., DeFelice, L., Duke, B.-J., Moore, K. Blakely, R. (1995) Sodium dependent norepinephrine induced currents in norephinephrine transporter transfected HEK293 cells blocked by cocaine and antidepressants. J. Exp. Biol. 198:2197–2212. • 212610. Eggerickx, D., Raspe, E. Bertrand, D., Vassart, G., Parmentier, M. (1992) Molecular cloning, functional expression and pharmacological characterization of a human bradykinin B2 receptor gene. Biochem Biophys Res Commun 187 (3): 1306–1313. • 214510. Schoemaker, H. and Langer, S. Z. (1985) [3H]Diltiazem binding to calcium channel antagonist recognition sites in rat cerebral cortex. Eur. J. Pharmacol. 111:273–277. • 274020. […] J. Biol. Chem. 269(10):7124–7130. • 302000. Galli, A., DeFelice, L. Duke, B.-J., and Blakely, R. (1995) Sodium dependent norephinephrine-induced currents in norepinephrine-transporter-transfected HEK-293 cells blocked by cocaine and antidepressants. J. Exp. Biol. 198:2197–2212. • 302100. Page, B., Page, M. and Noel, C. (1993) A new fluorometric assay for cytotoxicity measurements in vitro. […] 3:473–476, 1993. • 364000. […] J. Biol. Chem. […]:7124–7130. • 364100. Page, B., Page, M. and Noel, C. (1993) A new fluorometric assay for cytotoxicity measurements in vitro. Int. J. Oncology 3:473–476, 1993.

other receptors = assay: Radioligand binding assay panel, other receptors (FIGS. 32 and 33); set-up: species or system human, mouse, guinea pig, syrian hamster, rat; conditions: radioligand binding assays at 10 μM
Method: as §1

uptake of dopamine = uptake of dopamine (Homo sapiens, UniProt Q01959); conditions: cited from earlier work
uptake of dopamine, sequence (Q01959 whole entry): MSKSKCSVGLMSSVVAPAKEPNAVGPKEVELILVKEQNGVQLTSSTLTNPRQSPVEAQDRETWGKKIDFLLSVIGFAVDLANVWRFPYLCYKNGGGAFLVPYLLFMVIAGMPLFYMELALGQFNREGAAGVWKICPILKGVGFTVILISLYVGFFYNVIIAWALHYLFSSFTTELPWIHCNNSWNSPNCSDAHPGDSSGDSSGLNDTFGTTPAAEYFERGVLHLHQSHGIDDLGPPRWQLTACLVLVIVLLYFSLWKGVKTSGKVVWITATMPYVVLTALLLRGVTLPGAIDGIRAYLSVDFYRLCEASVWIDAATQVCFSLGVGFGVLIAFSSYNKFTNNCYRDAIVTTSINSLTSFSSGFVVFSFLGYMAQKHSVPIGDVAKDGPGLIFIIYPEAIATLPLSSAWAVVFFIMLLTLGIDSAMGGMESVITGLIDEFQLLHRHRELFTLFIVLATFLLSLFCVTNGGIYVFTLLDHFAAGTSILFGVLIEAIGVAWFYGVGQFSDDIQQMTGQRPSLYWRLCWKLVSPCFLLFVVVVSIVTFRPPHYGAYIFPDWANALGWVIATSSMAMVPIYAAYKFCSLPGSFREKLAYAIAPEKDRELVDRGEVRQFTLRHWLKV

[4] = test system: alpha or beta adrenergic, muscarinic, histaminergic, and dopaminergic receptors; conditions: cited from earlier work
beta adrenoceptors = conditions: after chronic administration; Briley et al. 1996; cited from earlier work
[5] = test system: norepinephrine (NE) and serotonin (5-HT) uptake; conditions: Viazzo et al. 1996; Deprez et al. 1998; cited from earlier work
[6] = biological target: T1, Norepinephrine Transporter (NET); conditions: radioligand [125I] RTI-55; Human recombinant MDCK cells; historical value (*); cited from earlier work
[7] = biological target: T2, Serotonin Transporter (SERT); conditions: radioligand [125I] RTI-55; Human recombinant HEK-293 cells; historical value (*); cited from earlier work

SMILES: CCN(CC)C(=O)C1(c2ccc(O)cc2)CC1CN (racemic) [CS1814, racemic 2-Aminomethyl-1-(4-hydroxy-phenyl)-cyclopropanecarboxylic acid diethyl amide]
- Ki [1]: 218 nM
- IC50 ([1]; radioligand binding, FIG. 59, read-out: IC50 for inhibition of norepinephrine transporter): 220 nM
- Ki [2]: 6.73 nM
- IC50 ([2]; radioligand binding, FIG. 59, read-out: IC50 for inhibition of serotonin transporter): 12.7 nM
- potency of inhibition of norepinephrine uptake compared to inhibition of serotonin uptake (Norepinephrine Uptake): approximately equal potency
- IC50 (Norepinephrine Uptake): 28.6 nM
- IC50 (Serotonin Uptake): 21.7 nM
- cytotoxicity [3]: no cytotoxicity was observed
- binding to other receptors (other receptors): generally does not bind well to other receptors

SMILES: CCN(CC)C(=O)[C@@]1(c2ccccc2)C[C@H]1CN (racemic) [Milnacipran, milnacipran]
- effect on the uptake of dopamine (uptake of dopamine): does not affect the uptake of dopamine
- affinity for alpha or beta adrenergic, muscarinic, histaminergic, and dopaminergic receptors [4]: no affinity
- effect on the number of beta adrenoceptors in rat cortex (beta adrenoceptors): does not affect the number of beta adrenoceptors

SMILES: CCN(CC)C(=O)[C@@]1(c2ccc(O)cc2)C[C@H]1CN [CS1713, 1S, 2R 2-Aminomethyl-1-(4-hydroxy-phenyl)-cyclopropanecarboxylic acid diethyl amide]
- Ki [1]: 112 nM
- Ki [2]: 3.88 nM
- potency of inhibition of norepinephrine uptake compared to inhibition of serotonin uptake (Norepinephrine Uptake): approximately two-fold
- IC50 (Norepinephrine Uptake): 10.3 nM
- IC50 (Serotonin Uptake): 22 nM
- cytotoxicity [3]: no cytotoxicity was observed

SMILES: CCN(CC)C(=O)[C@]1(c2ccc(O)cc2)C[C@@H]1CN.Cl [CS1714, 1R, 2S 2-Aminomethyl-1-(4-hydroxy-phenyl)-cyclopropanecarboxylic acid diethyl amide]
- Ki [1]: 1680 nM
- Ki [2]: 8.15 nM
- IC50 (Norepinephrine Uptake): 88.5 nM
- potency of inhibition of serotonin uptake compared to inhibition of norepinephrine uptake (Serotonin Uptake): approximately two-fold
- IC50 (Serotonin Uptake): 40.3 nM
- cytotoxicity [3]: no cytotoxicity was observed

SMILES: CCN(CC)C(=O)[C@@]1(c2ccccc2)C[C@H]1CN [F2695, (+)-1S,2R-milnacipran]
- activity in inhibiting norepinephrine and serotonin reuptake compared with the racemic mixture [5]: roughly twice

SMILES: CCN(CC)C(=O)[C@]1(c2ccccc2)C[C@@H]1CN [F2696, (−)-1R,2S-milnacipran]
- activity in inhibiting norepinephrine and serotonin reuptake compared with the racemic mixture [5]: much less potent

SMILES: COC(=O)[C@H]1[C@@H](c2ccc(I)cc2)C[C@@H]2CC[C@H]1N2C [[^125I] RTI-55]
- Kd [6]: 24 nM
- Kd [7]: 0.17 nM
